Reference: patent US20230174608A1, “Polypeptide Derivative Having Dual Receptor Agonistic Action and Use Thereof” (TIANJIN INSTITUTE OF PHARMACEUTICAL RESEARCH CO., LTD., priority 2020, published 2023)
*1 amine or outer side, *2 acyl side, *3 side chain or, on linkers, in order; H or OH if unused. Where a SMILES comes first, the peptide text is derived from it. Side-chain parts run from the residue outwards. [ ]: non-standard residue; d: D form. The star is where a group is joined. γGlu = O=C(O)[C@H](CCC(=O)[*:2])N[*:1]; Palmitoyl = CCCCCCCCCCCCCCCC(=O)*; AEEA = NCCOCCOCC(=O)O; Aib = CC(C)(N)C(=O)O

Columns and labels:
GLP-1R = biological target: T1, GLP-1R (Homo sapiens, UniProt P43220); assay: GLP-1 receptor-mediated cAMP production in vitro; format: cell-based; conditions: HEK293 cell line stably expressing GLP-1R
T1 construct: expressed in transfected cells
T1 sequence (P43220 24-463, species assumed): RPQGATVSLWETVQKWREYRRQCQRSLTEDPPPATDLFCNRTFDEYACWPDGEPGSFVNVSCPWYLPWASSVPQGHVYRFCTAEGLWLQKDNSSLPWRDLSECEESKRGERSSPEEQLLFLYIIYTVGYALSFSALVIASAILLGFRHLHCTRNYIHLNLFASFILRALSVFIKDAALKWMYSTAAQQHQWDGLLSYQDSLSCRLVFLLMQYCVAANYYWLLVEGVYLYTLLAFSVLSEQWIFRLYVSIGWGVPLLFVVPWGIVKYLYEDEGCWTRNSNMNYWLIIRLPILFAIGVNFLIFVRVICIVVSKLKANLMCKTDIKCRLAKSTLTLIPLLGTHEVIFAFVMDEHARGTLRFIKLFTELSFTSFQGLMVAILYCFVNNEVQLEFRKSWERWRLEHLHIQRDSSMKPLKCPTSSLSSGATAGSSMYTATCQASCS
Procedure: (§1) HEK293 cell line stably expressing GLP-1R or GCGR was used for screening GLP-1R and GCGR agonist.
(§2) Preparation of test sample: each compound was prepared into 100 μM stock solution, and then gradually diluted to working concentrations of 1 μM, 100 nM, 10 nM, 1 nM, 10^−1 nM, 10^−2 nM, 10^−3 nM, and H2O.
(§3) 1) Each compound to be tested was mixed with a serum-free medium (containing 0.1% BSA and 0.5 mM IBMX) to obtain a solution at a concentration 2 times the working concentration.
(§4) 2) The cells were digested, suspended in a serum-free medium (containing 0.5 mM IBMX), counted, and placed in a 384-well plate at a density of 1,000 cells/5 μL/well, then 5 μL of the testing compound was added, and the plate was placed in dark for reaction for 30 min.
(§5) 3) After the reaction was completed, a substrate for detecting cAMP was added, and the plate was placed in dark for reaction at the room temperature for 60 min.
(§6) 4) After the reaction was completed, the plate was placed on the Envision2104 multifunctional microplate reader for detection, and the ratio of optical density (OD) values at 665 nm and 615 nm were read out.

GCGR = biological target: T2, GCGR (Homo sapiens, UniProt P47871); assay: GC receptor-mediated cAMP production in vitro; format: cell-based; conditions: HEK293 cell line stably expressing GCGR
T2 construct: expressed in transfected cells
T2 sequence (P47871 26-477, species assumed): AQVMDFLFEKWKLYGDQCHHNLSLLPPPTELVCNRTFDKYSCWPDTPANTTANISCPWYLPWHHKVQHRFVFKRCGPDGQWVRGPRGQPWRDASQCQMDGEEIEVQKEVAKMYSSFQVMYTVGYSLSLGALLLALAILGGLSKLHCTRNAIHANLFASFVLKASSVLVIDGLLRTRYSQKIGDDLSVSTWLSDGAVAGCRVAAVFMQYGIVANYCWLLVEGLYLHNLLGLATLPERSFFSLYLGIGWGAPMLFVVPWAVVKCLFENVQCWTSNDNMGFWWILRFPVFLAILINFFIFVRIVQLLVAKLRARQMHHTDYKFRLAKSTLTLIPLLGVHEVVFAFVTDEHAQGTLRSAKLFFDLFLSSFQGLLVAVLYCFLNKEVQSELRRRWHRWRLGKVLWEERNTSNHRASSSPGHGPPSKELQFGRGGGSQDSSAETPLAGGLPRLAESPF
Procedure: as §1, §2, §3, §4, §5, §6

[1] = tested on: glucose loaded normal mice; assay: Glucose loading test on normal mice after single administration; format: in vivo, Kunming mice; conditions: for Blood glucose reduction rate (%) / Blood glucose level after glucose loading: 30 nmol/kg single dose; for Blood glucose reduction rate (%): after glucose loading, versus model control group; for Blood glucose level after glucose loading: glucose 2.5 g/kg intragastric 60 min after administration, measured 30 min after loading; for Blood glucose level after glucose loading / Fasting blood glucose level: n=5; for Fasting blood glucose level: normal mice fasted 6 h, 30 nmol/kg group
Procedure: The hypoglycemic action of each compound of Example 1 was assessed by a glucose loading test on normal mice after single administration.
Method: Kunming mice (male, with a weight of 20-22 g) were acclimated in a barrier environment animal room for 3 days, divided into a blank control group, a model control group, a positive control group, and test compound groups, 5 mice in each group, and fasted for 6 h. Saline was administered to each mouse in the blank control group and the model control group, the compounds and a positive control drug were respectively administered to each mouse in the test compound groups and the positive control group at a dose of 30 nmol/kg, and the positive control drug was semaglutide. 60 min after administration, glucose was intragastrically administered to each mouse in the model control group, the positive control group, and the test compound groups at a dose of 2.5 g/kg (0.01 mL·g^−1 weight), distilled water was administered to each mouse in the blank control group, and blood glucose levels were determined 30 min after glucose loading.

SMILES	EC50 (GLP-1R) [nM]	EC50 (GCGR) [nM]	Blood glucose reduction rate (%) [1] [%]	Blood glucose level after glucose loading [1] [mmol/L]	Fasting blood glucose level [1] [mmol/L]
CCCCCCCCCCCCCCCC(=O)N[C@@H](CCC(=O)NCCCC[C@H](NC(=O)[C@H](C)NC(=O)[C@H](C)NC(=O)[C@H](CCCNC(=N)N)NC(=O)[C@H](CCC(=O)O)NC(=O)[C@H](CCC(=O)O)NC(=O)[C@H](CC(C)C)NC(=O)[C@H](Cc1ccc(O)cc1)NC(=O)[C@H](CCCCN)NC(=O)[C@H](CO)NC(=O)[C@H](Cc1ccc(O)cc1)NC(=O)[C@H](CC(=O)O)NC(=O)[C@H](CO)NC(=O)[C@@H](NC(=O)[C@H](Cc1ccccc1)NC(=O)[C@@H](NC(=O)CNC(=O)[C@H](CCC(N)=O)NC(=O)C(C)(C)NC(=O)[C@@H](N)Cc1c[nH]cn1)[C@@H](C)O)[C@@H](C)O)C(=O)N[C@@H](CCC(=O)O)C(=O)N[C@@H](Cc1ccccc1)C(=O)N[C@H](C(=O)N[C@@H](C)C(=O)N[C@@H](Cc1c[nH]c2ccccc12)C(=O)N[C@@H](CC(C)C)C(=O)N[C@@H](CCC(=O)O)C(=O)N[C@@H](CO)C(=O)NCC(=O)NCC(N)=O)[C@@H](C)CC)C(=O)O [dgc008] (HELM PEPTIDE1{H.[Aib].Q.G.T.F.T.S.D.Y.S.K.Y.L.E.E.R.A.A.K.E.F.I.A.W.L.E.S.G.G.[am]}|PEPTIDE2{[CCCCCCCCCCCCCCCC(=O)[*:2]].[gGlu]}$PEPTIDE1,PEPTIDE2,20:R3-2:R2$$$V2.0; N-terminus assumed)	0.742	2.03	48.70	8.72 ± 1.99	3.64 ± 1.00
CCCCCCCCCCCCCCCC(=O)N[C@@H](CCC(=O)N[C@@H](CCC(=O)NCCCC[C@H](NC(=O)[C@H](C)NC(=O)[C@H](C)NC(=O)[C@H](CCCNC(=N)N)NC(=O)[C@H](CCC(=O)O)NC(=O)[C@H](CC(=O)O)NC(=O)[C@H](CC(C)C)NC(=O)[C@H](Cc1ccc(O)cc1)NC(=O)[C@H](CCCCN)NC(=O)[C@H](CO)NC(=O)[C@H](Cc1ccc(O)cc1)NC(=O)[C@H](CC(=O)O)NC(=O)[C@H](CO)NC(=O)[C@@H](NC(=O)[C@H](Cc1ccccc1)NC(=O)[C@@H](NC(=O)CNC(=O)[C@H](CCC(N)=O)NC(=O)C(C)(C)NC(=O)[C@@H](N)Cc1c[nH]cn1)[C@@H](C)O)[C@@H](C)O)C(=O)N[C@@H](CCC(=O)O)C(=O)N[C@@H](Cc1ccccc1)C(=O)N[C@H](C(=O)N[C@@H](C)C(=O)N[C@@H](Cc1c[nH]c2ccccc12)C(=O)N[C@@H](CC(C)C)C(=O)N[C@@H](CCC(=O)O)C(=O)NCC(=O)NCC(N)=O)[C@@H](C)CC)C(=O)O)C(=O)O [dgc013] (HELM PEPTIDE1{H.[Aib].Q.G.T.F.T.S.D.Y.S.K.Y.L.D.E.R.A.A.K.E.F.I.A.W.L.E.G.G.[am]}|PEPTIDE2{[CCCCCCCCCCCCCCCC(=O)[*:2]].[gGlu].[gGlu]}$PEPTIDE1,PEPTIDE2,20:R3-3:R2$$$V2.0; N-terminus assumed)	0.319	1.99	45.53	9.26 ± 1.76	3.92 ± 0.51
CCCCCCCCCCCCCCCC(=O)N[C@@H](CCC(=O)NCCOCCOCC(=O)NCCOCCOCC(=O)NCCCC[C@H](NC(=O)[C@H](C)NC(=O)[C@H](C)NC(=O)[C@H](CCCNC(=N)N)NC(=O)[C@H](CCC(=O)O)NC(=O)[C@H](CCC(=O)O)NC(=O)[C@H](CC(C)C)NC(=O)[C@H](Cc1ccc(O)cc1)NC(=O)[C@H](CCCCN)NC(=O)[C@H](CO)NC(=O)[C@H](Cc1ccc(O)cc1)NC(=O)[C@H](CC(=O)O)NC(=O)[C@H](CO)NC(=O)[C@@H](NC(=O)[C@H](Cc1ccccc1)NC(=O)[C@@H](NC(=O)CNC(=O)[C@H](CCC(N)=O)NC(=O)C(C)(C)NC(=O)[C@@H](N)Cc1c[nH]cn1)[C@@H](C)O)[C@@H](C)O)C(=O)N[C@@H](CCC(=O)O)C(=O)N[C@@H](Cc1ccccc1)C(=O)N[C@H](C(=O)N[C@@H](C)C(=O)N[C@@H](Cc1c[nH]c2ccccc12)C(=O)N[C@@H](CC(C)C)C(=O)N[C@@H](CCC(=O)O)C(=O)NCC(=O)N[C@@H](CCC(=O)O)C(=O)NCC(N)=O)[C@@H](C)CC)C(=O)O [dgc021] (H-H[Aib]QGTFTSDYSKYLEERAAK([AEEA-AEEA-γGlu-Palmitoyl])EFIAWLEGEG-NH2; N-terminus assumed)	0.382	3.93			
